Source: ChEMBL document CHEMBL1143404, “New plasmid-mediated fluoroquinolone efflux pump, QepA, found in an Escherichia coli clinical isolate” (2007)
Values after ≈ are worked out from the molar mass of the structure shown. Active and inactive are the calls of the source. No cut-off for these calls is given here.

Legend:
Escherichia coli [1] = assay: Antimicrobial activity against Escherichia coli KAM32 pHPA containing mutated GyrA gene by agar dilution method; assay type: functional
Escherichia coli [2] = assay: Antimicrobial activity against multidrug-resistant Escherichia coli C316 pHPA containing mutated GyrA gene by agar dilution method; assay type: functional
Escherichia coli [3] = assay: Antimicrobial activity against Escherichia coli KAM32 pSTVqepA containing qepA gene ligated to pSTV28 plasmid by agar dilution method; assay type: functional
Escherichia coli [4] = assay: Antimicrobial activity against Escherichia coli KAM32 expressing deltaacrB ydhE hsd gene by agar dilution method; assay type: functional
Escherichia coli [5] = assay: Antimicrobial activity against Escherichia coli KAM32 pSTV28 containing chloramphenicol-resistant vector by agar dilution method; assay type: functional
[6] = molecular target: T1, Plasmid efflux fluoroquinolone (Escherichia coli) (UniProt A5H8A5); assay: Inhibition of qepA-mediated drug efflux in Escherichia coli KAM32 assessed as increase in accumulation of Norfloxacin by fluorescence spectroscopy
T1 sequence (whole entry): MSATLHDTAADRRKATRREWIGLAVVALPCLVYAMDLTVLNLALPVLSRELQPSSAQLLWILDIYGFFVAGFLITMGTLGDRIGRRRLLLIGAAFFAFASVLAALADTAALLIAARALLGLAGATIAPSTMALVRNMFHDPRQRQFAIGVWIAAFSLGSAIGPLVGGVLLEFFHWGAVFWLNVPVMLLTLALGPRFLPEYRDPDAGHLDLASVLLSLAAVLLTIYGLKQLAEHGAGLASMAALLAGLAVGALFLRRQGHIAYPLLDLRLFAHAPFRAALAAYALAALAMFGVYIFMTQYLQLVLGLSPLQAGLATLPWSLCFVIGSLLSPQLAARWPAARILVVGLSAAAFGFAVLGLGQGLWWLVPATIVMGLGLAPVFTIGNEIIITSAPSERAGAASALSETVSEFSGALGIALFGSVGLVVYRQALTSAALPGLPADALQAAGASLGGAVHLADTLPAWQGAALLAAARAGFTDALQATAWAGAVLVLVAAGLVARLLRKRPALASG

Escherichia coli [7] = assay: Ratio of MIC for Escherichia coli KAM32 pSTVqepA mutant to MIC for Escherichia coli KAM32 pSTV28 mutant; assay type: functional
Escherichia coli [8] = assay: Antimicrobial activity against Escherichia coli KAM32 pSTVdeltaqepA containing disrupted qepA gene by agar dilution method; assay type: functional

Structure (SMILES) | MIC (Escherichia coli [1]) [µg/mL] | MIC (Escherichia coli [2]) [µg/mL] | MIC (Escherichia coli [3]) [µg/mL] | MIC (Escherichia coli [4]) [µg/mL] | MIC (Escherichia coli [5]) [µg/mL] | Activity [6] | Ratio (Escherichia coli [7]) | MIC (Escherichia coli [8]) [µg/mL]
CC1(C)S[C@@H]2[C@H](NC(=O)[C@H](N)c3ccccc3)C(=O)N2[C@H]1C(=O)O [AMPICILLIN] | > 128 | > 128 | – | – | – | – | – | –
N#CC(C#N)=NNc1cccc(Cl)c1 [CARBONYL CYANIDE M-CHLOROPHENYLHYDRAZONE] | 16 (≈ 78.2 µM) | 16 (≈ 78.2 µM) | 16 (≈ 78.2 µM) | 16 (≈ 78.2 µM) | 16 (≈ 78.2 µM) | Active | 1 | 16 (≈ 78.2 µM)
O=C(O)c1cn(C2CC2)c2cc(N3CCNCC3)c(F)cc2c1=O [CIPROFLOXACIN] | 0.064 (≈ 0.193 µM) | > 128 | – | – | – | – | – | –
C[C@H](CCC(=O)O)[C@H]1CC[C@H]2[C@@H]3CC[C@@H]4C[C@H](O)CC[C@]4(C)[C@H]3C[C@H](O)[C@]12C [DEOXYCHOLIC ACID] | 512 (≈ 1300 µM) | > 1020 | 512 (≈ 1300 µM) | 1020 (≈ 2610 µM) | 512 (≈ 1300 µM) | – | 1 | 512 (≈ 1300 µM)
CCN1CCN(c2cc3c(cc2F)c(=O)c(C(=O)O)cn3C2CC2)CC1 [ENROFLOXACIN] | 0.25 (≈ 0.696 µM) | > 128 | 0.25 (≈ 0.696 µM) | 0.008 (≈ 0.0223 µM) | 0.008 (≈ 0.0223 µM) | – | 32 | 0.008 (≈ 0.0223 µM)
CC[C@H]1OC(=O)[C@H](C)[C@@H](O[C@H]2C[C@@](C)(OC)[C@@H](O)[C@H](C)O2)[C@H](C)[C@@H](O[C@@H]2O[C@H](C)C[C@H](N(C)C)[C@H]2O)[C@](C)(O)C[C@@H](C)C(=O)[C@H](C)[C@@H](O)[C@]1(C)O [ERYTHROMYCIN] | > 128 | > 128 | 2 (≈ 2.73 µM) | 2 (≈ 2.73 µM) | 1 (≈ 1.36 µM) | – | 2 | 1 (≈ 1.36 µM)
C[n+]1c2cc(N)ccc2cc2ccc(N)cc21.[Cl-] [EUFLAVINE] | 4 | > 128 | 4 | 2 | 2 | – | 2 | 2
COc1c(N2CCNC(C)C2)c(F)cc2c(=O)c(C(=O)O)cn(C3CC3)c12 (stereo not given) [GATIFLOXACIN] | 0.016 (≈ 0.0426 µM) | 32 (≈ 85.2 µM) | 0.016 (≈ 0.0426 µM) | 0.004 (≈ 0.0107 µM) | 0.002 (≈ 0.00533 µM) | – | 8 | 0.004 (≈ 0.0107 µM)
CN(C)c1ccc(C(=C2C=CC(=[N+](C)C)C=C2)c2ccc(N(C)C)cc2)cc1.[Cl-] [GENTIAN VIOLET] | 2 | 16 | 2 | 2 | 2 | – | 1 | 2
CC[n+]1c(-c2ccccc2)c2cc(N)ccc2c2ccc(N)cc21.[Br-] [HOMIDIUM BROMIDE] | 8 | > 128 | 8 | 4 | 4 | – | 2 | 4
NC[C@H]1O[C@H](O[C@H]2[C@H](O)[C@@H](O[C@H]3O[C@H](CO)[C@@H](O)[C@H](N)[C@H]3O)[C@H](N)C[C@@H]2N)[C@H](O)[C@@H](O)[C@@H]1O [KANAMYCIN] | > 128 | > 128 | 1 (≈ 2.06 µM) | 1 (≈ 2.06 µM) | 1 (≈ 2.06 µM) | – | 1 | 128 (≈ 264 µM)
C[C@H]1COc2c(N3CCN(C)CC3)c(F)cc3c(=O)c(C(=O)O)cn1c23.C[C@H]1COc2c(N3CCN(C)CC3)c(F)cc3c(=O)c(C(=O)O)cn1c23.O [LEVOFLOXACIN] | – | 32 | – | – | 0.004 | – | – | 0.004
CCn1cc(C(=O)O)c(=O)c2cc(F)c(N3CCNC(C)C3)c(F)c21 (stereo not given) [LOMEFLOXACIN] | 0.064 (≈ 0.182 µM) | > 128 | 0.064 (≈ 0.182 µM) | 0.032 (≈ 0.0911 µM) | 0.032 (≈ 0.0911 µM) | – | 2 | 0.032 (≈ 0.0911 µM)
COc1c(N2C[C@@H]3CCCN[C@@H]3C2)c(F)cc2c(=O)c(C(=O)O)cn(C3CC3)c12 [MOXIFLOXACIN] | 0.016 (≈ 0.0399 µM) | 32 (≈ 79.7 µM) | 0.016 (≈ 0.0399 µM) | 0.002 (≈ 0.00498 µM) | 0.002 (≈ 0.00498 µM) | – | 8 | 0.002 (≈ 0.00498 µM)
CCn1cc(C(=O)O)c(=O)c2ccc(C)nc21 [NALIDIXIC ACID] | 1 (≈ 4.31 µM) | > 128 | 2 (≈ 8.61 µM) | 1 (≈ 4.31 µM) | 1 (≈ 4.31 µM) | – | 2 | 1 (≈ 4.31 µM)
CCn1cc(C(=O)O)c(=O)c2cc(F)c(N3CCNCC3)cc21 [NORFLOXACIN] | 0.25 (≈ 0.783 µM) | > 128 | 1 (≈ 3.13 µM) | 0.016 (≈ 0.0501 µM) | 0.016 (≈ 0.0501 µM) | – | 64 | 0.016 (≈ 0.0501 µM)
C[C@H]1COc2c(C3(N)CC3)c(F)cc3c(=O)c(C(=O)O)cn1c23 [PAZUFLOXACIN] | 0.016 (≈ 0.0503 µM) | 16 (≈ 50.3 µM) | 0.016 (≈ 0.0503 µM) | 0.004 (≈ 0.0126 µM) | 0.004 (≈ 0.0126 µM) | – | 4 | 0.004 (≈ 0.0126 µM)
CC/N=c1\cc2oc3cc(NCC)c(C)cc3c(-c3ccccc3C(=O)OCC)c-2cc1C.Cl [RHODAMINE 6G HYDROCHLORIDE] | 4 | > 128 | 4 | 4 | 4 | – | 1 | 4
CCCCCCCCCCCCOS(=O)(=O)[O-].[Na+] [SODIUM LAURYL SULFATE] | 128 | – | 128 | 128 | 128 | – | 1 | > 128
C[C@@H]1CN(c2c(F)c(N)c3c(=O)c(C(=O)O)cn(C4CC4)c3c2F)C[C@H](C)N1 [SPARFLOXACIN] | 0.002 (≈ 0.0051 µM) | 16 (≈ 40.8 µM) | 0.002 (≈ 0.0051 µM) | 0.001 (≈ 0.00255 µM) | 0.001 (≈ 0.00255 µM) | – | 2 | 0.001 (≈ 0.00255 µM)
CN(C)[C@@H]1C(O)=C(C(N)=O)C(=O)[C@@]2(O)C(O)=C3C(=O)c4c(O)cccc4[C@@](C)(O)[C@H]3C[C@@H]12 [TETRACYCLINE] | 0.25 (≈ 0.563 µM) | > 128 | 0.25 (≈ 0.563 µM) | 0.25 (≈ 0.563 µM) | 0.25 (≈ 0.563 µM) | – | 1 | 0.125 (≈ 0.281 µM)
NC1CCN(c2nc3c(cc2F)c(=O)c(C(=O)O)cn3-c2ccc(F)cc2F)C1 (stereo not given) [TOSUFLOXACIN] | 0.032 (≈ 0.0791 µM) | > 128 | 0.032 (≈ 0.0791 µM) | 0.002 (≈ 0.00495 µM) | 0.002 (≈ 0.00495 µM) | – | 16 | 0.002 (≈ 0.00495 µM)
